# From patent publication EP0802730B1, “PESTICIDAL COMPOUNDS” (BTG INTERNATIONAL LIMITED, priority 1995, dated 1996)
# System: Aspergillus niger
# Test: Fungitoxicity in vitro on potato dextrose agar
# Assay type: cell-based
# Details: A. niger; 1 mg 1^-1; 4 days
row,SMILES,"% inhibition of growth in colony diameter in agar plates, Activity at 1 mg 1^-1"
1,"CCCN(CCOc1c(Cl)cc(Cl)cc1Cl)C(=O)n1ccnc1 [Prochloraz, prochloraz, reference compound]",97.8%

# Same assay, conditions: A. niger; 100 mg 1^-1; 4 days
row,SMILES,"% inhibition of growth in colony diameter in agar plates, Activity at 100 mg 1^-1"
1,"CCC(C)(C)C1=C(O)C(=O)c2ccccc2C1=O [Example 1, 2-(1,1-dimethylpropyl)-3-hydroxynaphthalene-1,4-dione]",63%
2,"CCC(C)(C)C1=C(OC(C)=O)C(=O)c2ccccc2C1=O [Example 2, 2-(1,1-dimethylpropyl)-3-ethanoyloxy-naphthalene-1,4-dione]",38%
3,"CC(C)(C)C1=C(O)C(=O)c2ccccc2C1=O [Example 3, 2-(t-butyl)-3-hydroxy-naphthalene-1,4-dione]",61%

# System: Diamond-back moth (PX) (Plutella xylostella)
# Test: Diamond-back moth larvae topical test (failure to pupate)
# Assay type: in vivo
# Details: fifth instar larvae, 0.5 µl drop; failure to pupate 5 days later
# Protocol: Fifth instar larvae were treated with a 0.5 µl drop of test compound in acetone. Three replicates of 10 larvae each were used at each dose rate and 5 dose rates were used per compound under test. After treatment, the larvae were maintained at about 22°C, and kill was assessed as failure to pupate 5 days later. LD50 values were calculated as for houseflies.
row,SMILES,PX (LD50)
1,"CCC(C)(C)C1=C(OC(C)=O)C(=O)c2ccccc2C1=O [Example 2, 2-(1,1-dimethylpropyl)-3-ethanoyloxy-naphthalene-1,4-dione]",c. 10 µg/insect
2,"CC(C)(C)C1=C(O)C(=O)c2ccccc2C1=O [Example 3, 2-(t-butyl)-3-hydroxy-naphthalene-1,4-dione]",c. 8.0 µg/insect

# System: Pyricularia oryzae (=Magnaporthe grisea)
# Test: not given
# Assay type: cell-based
# Details: P. oryzae; 100 mg 1^-1; 7 days
row,SMILES,"% inhibition of growth in colony diameter in agar plates, Activity at 100 mg 1^-1"
1,"CCC(C)(C)C1=C(O)C(=O)c2ccccc2C1=O [Example 1, 2-(1,1-dimethylpropyl)-3-hydroxynaphthalene-1,4-dione]",100%
2,"CCC(C)(C)C1=C(OC(C)=O)C(=O)c2ccccc2C1=O [Example 2, 2-(1,1-dimethylpropyl)-3-ethanoyloxy-naphthalene-1,4-dione]",89%
3,"CC(C)(C)C1=C(O)C(=O)c2ccccc2C1=O [Example 3, 2-(t-butyl)-3-hydroxy-naphthalene-1,4-dione]",100%

# System: resistant mites (TU) (Tetranychus urticae), NYR-Bif-1000
# Test: Mite immersion test, bifenthrin-resistant strain
# Assay type: in vivo
# Details: 72 h, read-out: TU (NYR-Bif-1000) (LC50)
# Protocol: (§1) 25 adult female mites were immersed in 35 µl of a solution of the test compound in a 1:4 acetone-water mixture for 30 seconds. The treated insects were maintained at 21° ± 2°C and kill was assessed 72 hours after treatment. […] Three replicates of 25 mites each were used at each dose rate and 5 or 6 dose rates were used per compound under test. LC50 values were calculated in ppm of the solution of the test compound per insect. The test was carried out using a susceptible strain of mites (GSS) supplied by Schering, AG, Berlin.
# The test of Example 16 (TU(GSS)) was repeated using a strain of mites which is resistant to bifenthrin (NYR-Bif-1000). The NYR-Bif-1000 strain was provided by the Department of Entomology, Cornell University, New York.
row,SMILES,LC50
1,"CCC(C)(C)C1=C(O)C(=O)c2ccccc2C1=O [Example 1, 2-(1,1-dimethylpropyl)-3-hydroxynaphthalene-1,4-dione]",84 µg/mL
2,"CCC(C)(C)C1=C(OC(C)=O)C(=O)c2ccccc2C1=O [Example 2, 2-(1,1-dimethylpropyl)-3-ethanoyloxy-naphthalene-1,4-dione]",83 µg/mL

# System: Houseflies (MD) (Musca domestica)
# Test: not given
# Assay type: in vivo
# Details: topical 1 µl drop in acetone on female flies; kill assessed 24 and 48 hours
# Protocol: Female flies were treated on the thorax with a one microlitre drop of test compound dissolved in acetone. Two replicates of 15 flies were used at each dose rate and 6 dose rates were used per compound under test. After treatment, the flies were maintained at a temperature of 20° ± 1°C and kill was assessed 24 and 48 hours after treatment. LD50 values were calculated in micrograms of test compound per fly (see Sawicki et al., Bulletin of the World Health Organisation, 35, 893 (1966) and Sawicki et al., Entomologia and Exp. Appli 10, 253, (1967).
row,SMILES,MD (LD50)
1,"CCC(C)(C)C1=C(O)C(=O)c2ccccc2C1=O [Example 1, 2-(1,1-dimethylpropyl)-3-hydroxynaphthalene-1,4-dione]",< 10 µg/insect
2,"CCC(C)(C)C1=C(OC(C)=O)C(=O)c2ccccc2C1=O [Example 2, 2-(1,1-dimethylpropyl)-3-ethanoyloxy-naphthalene-1,4-dione]",< 10 µg/insect
3,"CC(C)(C)C1=C(O)C(=O)c2ccccc2C1=O [Example 3, 2-(t-butyl)-3-hydroxy-naphthalene-1,4-dione]",c. 2.5 µg/insect

# System: Rhizoctonia solani
# Test: Fungitoxicity in vitro on potato dextrose agar
# Assay type: cell-based
# Details: R. solani; 100 mg 1^-1; 4 days
row,SMILES,"% inhibition of growth in colony diameter in agar plates, Activity at 100 mg 1^-1"
1,"CCC(C)(C)C1=C(O)C(=O)c2ccccc2C1=O [Example 1, 2-(1,1-dimethylpropyl)-3-hydroxynaphthalene-1,4-dione]",95%
2,"CCC(C)(C)C1=C(OC(C)=O)C(=O)c2ccccc2C1=O [Example 2, 2-(1,1-dimethylpropyl)-3-ethanoyloxy-naphthalene-1,4-dione]",81%
3,"CC(C)(C)C1=C(O)C(=O)c2ccccc2C1=O [Example 3, 2-(t-butyl)-3-hydroxy-naphthalene-1,4-dione]",92%

# System: Mustard beetles (PC) (Phaedon cochleariae Fab)
# Test: not given
# Assay type: in vivo
# Details: 1 µl acetone drop applied ventrally to adults; kill at 48 hours; NA = lack of detectable activity
# Protocol: A one microlitre drop of an acetone solution of the test compound was applied ventrally to adult mustard beetles using a micro drop applicator. The treated insects were maintained for 48 hours after which time kill was assessed. Two replicates each of 20 to 25 mustard beetles were used at each dose level and 5 dose levels were treated comparably. LD50 values were calculated as for houseflies.
row,SMILES,PC (LD50)
1,"CCC(C)(C)C1=C(O)C(=O)c2ccccc2C1=O [Example 1, 2-(1,1-dimethylpropyl)-3-hydroxynaphthalene-1,4-dione]",c. 10 µg/insect
2,"CCC(C)(C)C1=C(OC(C)=O)C(=O)c2ccccc2C1=O [Example 2, 2-(1,1-dimethylpropyl)-3-ethanoyloxy-naphthalene-1,4-dione]",c. 6.0 µg/insect
3,"CC(C)(C)C1=C(O)C(=O)c2ccccc2C1=O [Example 3, 2-(t-butyl)-3-hydroxy-naphthalene-1,4-dione]",c. 6.0 µg/insect

# System: Myzus persicae, susceptible strain (US1L)
# Test: Aphid dip test, susceptible strain
# Assay type: in vivo
# Details: strain S, 40 PPM, read-out: % mortality corrected for control data
# Protocol: Activity against resistant (R) and susceptible (S) strains of aphid (Myzus persicae) was assessed using the following method.
# Entrapment rings of fluon were painted halfway up the inside of 4 cm lengths of glass tubing (1.5 cm diameter), and squares of insect-proof gauze were attached to one end of each tube by elastic bands. Fifteen apterous adults were then gently transferred into the tubes using a sable-hair brush, and the tube sealed with a second gauze square.
# Tubes containing aphids were dipped into insecticide solutions for 10 seconds, dried on blotting paper, and then inverted and tapped to cause treated aphids to fall to the unimmersed end of each tube. Handling mortality (usually zero or very slight) was scored after 1 hour, when aphids were transferred onto chinese cabbage leaf-discs (35 mm diameter) on an agar bed (25 mm in depth) in disposible plastic containers (30 mm high) and confined by applying a ring of fluon to the exposed lip of the container. Containers were store upright, without lids, in a constant environment facility maintained at 25°C under continuous room lighting. Mortality was assessed at 24, 48 and 72 hours. Two replicates of 15 aphids each were used at each dose rate and 5 or 6 dose rates were used per compound under test.
# The test was carried out using a susceptible strain of aphids (US1L) collected in the field in East Anglia, UK and an extremely resistant strain of aphids (794Jz) (R3 esterase, sensitive AChE) collected from glasshouses in the UK.
# The values given are % mortality corrected for control data. The control comprised the test solution without active ingredient.
row,SMILES,mortality at 40 ppm
1,"CCC(C)(C)C1=C(OC(C)=O)C(=O)c2ccccc2C1=O [Example 2, 2-(1,1-dimethylpropyl)-3-ethanoyloxy-naphthalene-1,4-dione]",20%

# Same assay, conditions: strain S, 100 PPM, read-out: % mortality corrected for control data
row,SMILES,mortality at 100 ppm
1,"CCC(C)(C)C1=C(O)C(=O)c2ccccc2C1=O [Example 1, 2-(1,1-dimethylpropyl)-3-hydroxynaphthalene-1,4-dione]",11%
2,"CC(C)(C)C1=C(O)C(=O)c2ccccc2C1=O [Example 3, 2-(t-butyl)-3-hydroxy-naphthalene-1,4-dione]",27%

# Same assay, conditions: strain S, 250 PPM, read-out: % mortality corrected for control data
row,SMILES,mortality at 250 ppm
1,"CCC(C)(C)C1=C(O)C(=O)c2ccccc2C1=O [Example 1, 2-(1,1-dimethylpropyl)-3-hydroxynaphthalene-1,4-dione]",26%
2,"CCC(C)(C)C1=C(OC(C)=O)C(=O)c2ccccc2C1=O [Example 2, 2-(1,1-dimethylpropyl)-3-ethanoyloxy-naphthalene-1,4-dione]",27%
3,"CC(C)(C)C1=C(O)C(=O)c2ccccc2C1=O [Example 3, 2-(t-butyl)-3-hydroxy-naphthalene-1,4-dione]",87%

# System: Mites (TU) (Tetranychus urticae), susceptible strain (GSS)
# Test: Mite immersion test, susceptible strain GSS
# Assay type: in vivo
# Details: ppm solution of test compound, 30 seconds immersion, kill at 72 hours, read-out: TU(GSS) (LC50)
# Protocol: as §1
row,SMILES,LC50
1,"CCC(C)(C)C1=C(O)C(=O)c2ccccc2C1=O [Example 1, 2-(1,1-dimethylpropyl)-3-hydroxynaphthalene-1,4-dione]",39 µg/mL
2,"CCC(C)(C)C1=C(OC(C)=O)C(=O)c2ccccc2C1=O [Example 2, 2-(1,1-dimethylpropyl)-3-ethanoyloxy-naphthalene-1,4-dione]",64 µg/mL
3,"CC(C)(C)C1=C(O)C(=O)c2ccccc2C1=O [Example 3, 2-(t-butyl)-3-hydroxy-naphthalene-1,4-dione]",81 µg/mL

# System: Whitefly (BT) (Bemisia tabaci), susceptible strain (SUD-S)
# Test: Whitefly residual film vial test, susceptible strain SUD-S
# Assay type: in vivo
# Details: ppm solution of test compound, 60 minutes film exposure, mortality after 48 hours, read-out: BT(SUD-S) (LC50)
# Protocol: Acetone solutions (0.100 ml) of the test compounds were placed in 10 ml glass vials and evaporated with rotation to deposit a film of the compound. Thirty adult whiteflies were placed inside the vial, then after 60 minutes, the treated insects were transferred onto untreated cotton leaf discs which were kept moist on a bed of agar gel. The temperature was maintained at 25°C and mortality assessed after 48 hours. Three replicates were used at each of 5 to 7 dose levels per compound.
row,SMILES,LC50
1,"CCC(C)(C)C1=C(O)C(=O)c2ccccc2C1=O [Example 1, 2-(1,1-dimethylpropyl)-3-hydroxynaphthalene-1,4-dione]",19 µg/mL
2,"CCC(C)(C)C1=C(OC(C)=O)C(=O)c2ccccc2C1=O [Example 2, 2-(1,1-dimethylpropyl)-3-ethanoyloxy-naphthalene-1,4-dione]",4.8 µg/mL
3,"CC(C)(C)C1=C(O)C(=O)c2ccccc2C1=O [Example 3, 2-(t-butyl)-3-hydroxy-naphthalene-1,4-dione]",8 µg/mL
